The values that follow come from ChEMBL document CHEMBL1944584 (Bioorg Med Chem Lett, 2012).

Common to all, as to assay type: cell-based
The target in assay [1] is T1, Sodium-dependent dopamine transporter (Homo sapiens, UniProt Q01959). In words: Binding affinity to human His6-DAT expressed in LLCPK1 cells at 10 nM after 1.5 hrs measured 2 mins post-irradiation by autoradiography in the presence of (+/-)-cocaine. As to conditions: LLC-PK1, tested as the 125I-labelled form.
In assay [2] the target is T1, Sodium-dependent dopamine transporter. In words: Displacement of [3H]WIN-35,428 from human DAT expressed in N2A cells after 15 mins by photoaffinity labeling. A general note: In a radioligand displacement assay an active substance lowers the binding of a labelled ligand.
The target in assay [3] is T2, Neuronal acetylcholine receptor; alpha4/beta2 (Homo sapiens) (UniProt P17787+P43681). In words: Binding affinity to human alpha4beta2 nAChR in HEK cells at 0.21 nM after 5 hrs by gamma counting in the presence of (+/-)-bupropion. As to conditions: HEK293, tested as the 125I-labelled form.
Assay [4] has as its target T1, Sodium-dependent dopamine transporter. In words: Binding affinity to human His6-DAT expressed in LLCPK1 cells at 10 nM after 1.5 hrs measured 2 mins post-irradiation by SDS-PAGE/autoradiography. The conditions noted are these: LLC-PK1, tested as the 125I-labelled form.
Assay [5] shares this target. In words: Binding affinity to human His6-DAT expressed in LLCPK1 cells at 10 nM after 1.5 hrs measured 2 mins post-irradiation by autoradiography in the presence of (+/-)-bupropion. The conditions noted are these: LLC-PK1, tested as the 125I-labelled form.
In assay [6] the target is T2, Neuronal acetylcholine receptor; alpha4/beta2 (Homo sapiens). In words: Binding affinity to human alpha4beta2 nAChR in HEK cells at 78 nM after 2 hrs measured 10 mins post-irradiation by autoradiography in the presence of 160 uM (+/-)-bupropion. The conditions noted are these: HEK293, tested as the 125I-labelled form.

Active and inactive are the calls of the source. No cut-off for these calls is given here.

T1 sequence (Q01959 whole entry): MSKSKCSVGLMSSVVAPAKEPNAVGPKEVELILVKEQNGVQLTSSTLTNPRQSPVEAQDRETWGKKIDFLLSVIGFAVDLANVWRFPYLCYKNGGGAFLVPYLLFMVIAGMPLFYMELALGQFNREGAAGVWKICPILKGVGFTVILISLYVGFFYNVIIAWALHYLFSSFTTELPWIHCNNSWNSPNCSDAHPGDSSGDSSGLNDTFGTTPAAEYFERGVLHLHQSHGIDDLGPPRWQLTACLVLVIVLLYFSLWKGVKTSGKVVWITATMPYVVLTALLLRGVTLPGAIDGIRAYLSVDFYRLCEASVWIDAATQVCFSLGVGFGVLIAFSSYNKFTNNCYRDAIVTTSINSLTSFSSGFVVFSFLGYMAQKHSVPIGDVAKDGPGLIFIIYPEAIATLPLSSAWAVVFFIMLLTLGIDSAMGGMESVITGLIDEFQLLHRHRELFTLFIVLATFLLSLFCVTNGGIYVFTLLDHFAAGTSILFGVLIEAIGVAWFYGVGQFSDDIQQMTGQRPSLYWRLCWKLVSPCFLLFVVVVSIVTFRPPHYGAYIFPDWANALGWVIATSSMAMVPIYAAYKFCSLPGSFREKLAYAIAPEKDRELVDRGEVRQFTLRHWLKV

As usually defined, the Ki is a dissociation constant, usually derived from enzyme kinetics or from competition with a known ligand. As for `CC(NC(C)(C)C)C(=O)c1ccc(N=[N+]=[N-])c(I)c1` (racemic), the outcome in assay [1], in assay [3], in assay [5] and in assay [6] was inactive. For the same molecule, the Ki in assay [2] worked out at 3.07 µM. Further, the result in assay [4] was Active.
